Results: article PMC11429909, “Protein Structure Inspired Discovery of a Novel Inducer of Anoikis in Human Melanoma” (Cancers, 2024)

Tests used:
HT29 = assay: Eight-day colony formation assay, colon cancer HT29; assay type: cell-based, human; details: 0.82 µM
Protocol: Initial colony formation screening assays were conducted on all acquired compounds and examined at five different compound concentrations. Those meeting efficacy criteria underwent a second-level screen examining nine different compound concentrations. Eight-day colony formation assays of cancer cells were performed as described by us. Briefly, 0.5–1.0 × 10^3 cells were seeded into each well of a 12-well plate. Twenty-four hours later, the compound was added at the following final concentrations: 0 (DMSO-only control), 0.017, 0.12, 0.82, 5.7, and 40 µM. For each concentration, there were N = 2 replicates, i.e., 2 wells. Eight days later, plates were stained with trypan blue, visualized under light microscopy, and groups of three or more cells were scored as colonies. The mean number of colonies was then determined and expressed as the percentage of controls. […]
In addition to screens, eight-day colony formation assays were conducted for certain experiments, as denoted. […] The IC50 values were calculated using nonlinear regression analysis. […] The IC50 values were determined using the dose–response inhibition function. […]
Human hematopoietic stem cell trilineage colony formation assays were performed as previously described by us. […] At eight days, colonies (i.e., groups of ≥10 cells) were counted. […] The mean number of colonies was then determined and expressed as the percentage of controls. […]

[1] = system: human cord blood CD34+ cells; assay: Bone marrow stem cell (hematopoietic trilineage) colony formation assay; assay type: cell-based; details: for Mean Number of Colonies, % of Control, 14 days / Mean Number of Colonies, % of Control, 8 days: normal bone marrow, compound at 40 µM, N = 2; for Mean Number of Colonies, % of Control, 8 days: total colonies at 8 days
Protocol: (§1) Human hematopoietic stem cell trilineage colony formation assays were performed as previously described by us. Briefly, human cord blood CD34+ cells (catalog #: 70008.5) were purchased from StemCell Technology Inc. and seeded at 1 × 10^4 cells per 35 mm dish. Cells were cultured in MethoCult™ Express (StemCell Technologies, Inc. (Vancouver, BC, Canada)) semisolid media, per the manufacturer’s instructions, in the presence of compound or vehicle (for controls). Compounds were added at final concentrations matching those used in the initial growth assay screens. At eight days, colonies (i.e., groups of ≥10 cells) were counted. At fourteen days, individual colonies of erythroid burst-forming units (BFU-E), colony-forming unit granulocyte–macrophage (CFU-GM), and colony-forming unit granulocyte, erythrocyte, monocyte, and megakaryocyte (CFU-GEMM) were identified based on the manufacturers’ morphologic characterization criteria. Assays were run in replicates of N = 2, and some were run in replicates of N = 4, as denoted. The mean number of colonies was then determined and expressed as the percentage of controls. The effect of each compound on inhibiting the growth of cancer cells relative to its toxic effects on normal bone marrow was evaluated. This was carried out by comparing colonies at 8 days for each cancer cell line to that of bone marrow. This information was used to calculate the efficacy ratio, as follows: efficacy ratio = (percent of remaining cancer cell colonies)/(percent of remaining bone marrow colonies). This was performed for all compounds at 40 µM and for selected compounds at 5.7 µM, as denoted. For compounds nominated for second-level screens, bone marrow colony formation assays were also repeated. Compounds were added at final concentrations matching those used in the initial screens.
In parallel with measuring growth inhibition of cancer cell growth, we measured the effect on human hematopoietic stem cells. Hematopoietic stem cells reside in the bone marrow and are the source of mature cells present in blood. Bone marrow is one of the most sensitive organs in the body to drug toxicity, and this is especially so for anticancer drugs, where bone marrow toxicity can approach 100% [78, 79, 80]. Bone marrow toxicity was measured by performing hematopoietic colony formation assays on human CD34+ stem cells. The stem cell nature of this assay permitted the assessment of trilineage colony formation: granulocytic (white blood cells), erythrocytic (red blood cells), and megakaryocytic (platelets), measured by the formation of CFU-GM, BFU-E, and CFU-GEMM colonies, respectively. Two measurements were taken. First, total colonies at eight days were measured, thereby matching the eight-day timeframe of cancer cell colony formation assays. Second, at fourteen days, individual colonies had differentiated, permitting quantification of each lineage.

[2] = system: breast, prostate, colon, or lung cancer cell lines; assay: Eight-day colony formation assays, summary across the cancer cell line panel; assay type: cell-based, human; details: for efficacy at concentrations below 40 µM (in words): 8-day colony formation
Protocol: Initial colony formation screening assays were conducted on all acquired compounds and examined at five different compound concentrations. Those meeting efficacy criteria underwent a second-level screen examining nine different compound concentrations. Eight-day colony formation assays of cancer cells were performed as described by us. Briefly, 0.5–1.0 × 10^3 cells were seeded into each well of a 12-well plate. Twenty-four hours later, the compound was added at the following final concentrations: 0 (DMSO-only control), 0.017, 0.12, 0.82, 5.7, and 40 µM. For each concentration, there were N = 2 replicates, i.e., 2 wells. Eight days later, plates were stained with trypan blue, visualized under light microscopy, and groups of three or more cells were scored as colonies. The mean number of colonies was then determined and expressed as the percentage of controls. Second-level screens were performed on compounds inhibiting colony formation by greater than 50% at 40 µM in at least two cell lines. Second-level assays used the following final concentrations of compound: 0 (DMSO only), 0.0061, 0.018, 0.05, 0.16, 0.49, 1.48, 4.44, 13.33, and 40 µM. All compounds were stored under desiccated conditions in a sealed container at minus 20 °C upon arrival. One day prior to use, they were dissolved in DMSO, stored at minus 20 °C as stock solutions, thawed just prior to use, and not reused.
as §1
We sought to identify compounds that would inhibit the growth of cancer cells, but that also did so selectively. Inhibition of cancer cell growth is a highly sought after attribute of anticancer agents. This was assessed by measuring the ability of a compound to inhibit cell growth in eight-day colony formation assays and examining concentrations ranging from 0.017 to 40 µM. Breast, colon, lung, and prostate cancer are four of the most common types of cancer in the United States, are major causes of cancer cell death, and were examined. […]

NCI-60 cell lines = assay: NCI-60 cell line screen; assay type: cell-based, human; details: 48 h at 10 µM
Protocol: The above findings support the importance of Dxr2 and FolC2 sites, and of Dxr2-017 and FolC2-001 compounds, respectively. The NCI-60 cell line screen evaluates compound growth inhibition and cell toxicity in a highly standardized manner across 60 different cell lines. Dxr2-017 and FolC2-001 were evaluated in this assay (Figure S6). NCI-60 screens evaluate cells treated for 48 h at 10 µM with a given compound. […] Of high interest, in the NCI-60 screen, Dxr2-017 had relatively high activity against melanoma cell lines, inducing cell death in five cell lines ranging from 25% to 65%, and inhibiting growth in four cell lines ranging from 76% to 96%. Its impact on cell death represented the most striking relative difference in response across cell lines.

Structure (SMILES)	Mean Number of Colonies, % of Control, 14 days [1]	Mean Number of Colonies, % of Control, 8 days [1]	also measured
O=c1[nH]cc(F)c(=O)[nH]1 [Compound 5FU, 5-fluorouracil, reference compound]	–	–	efficacy ratio (cancer cell colonies / bone marrow colonies, 8 days) (HT29): 0.82; effect on bone marrow colony formation (in words) ([1]; 0.82 µM): no effect on bone marrow; effect on bone marrow colony formation (in words) ([1]; 5.7 µM): profound suppressive effects; hematopoietic colony formation, % of the control ([1]; 5.7 µM, 8 days): 38 % of the control; effect on bone marrow colony formation (in words) ([1]; 40 µM): completely suppressed colony formation
Cc1nnsc1C(=O)OCCCn1c(=O)[nH]c2ccccc21 [Dxr2-001]	93 % of Control	109 % of Control	–
Cc1[nH]c(=O)[nH]c1C(=O)CCCCC(=O)O [EPSP-023]	114 % of Control	94 % of Control	–
c1ccc(CCc2n[nH]c(-c3ccccn3)n2)cc1 [FolC1-031]	85 % of Control	80 % of Control	–
O=C(Cn1c(=O)oc2ccccc21)N1CCn2c1nc1ccccc12 [FolC2-001]	87 % of Control	108 % of Control	efficacy ratio, mean ± SEM over cell lines with ratio below 0.5 ([2]; 40 µM, 8 days): 0.29 ± 0.09; number of cell lines with efficacy ratio below 0.5 ([2]; 40 µM, 8 days): five; efficacy at concentrations below 40 µM (in words) [2]: rapidly dropped off below 40 µM; activity in the NCI-60 screen (in words) (NCI-60 cell lines): against H226
O=C(CCc1c[nH]c2ccccc12)N1CCSc2ccccc21 [FolC2-005]	101 % of Control	105 % of Control	efficacy at concentrations below 40 µM (in words) [2]: A similar phenomenon was observed
O=C(Nc1nnn[nH]1)c1cc(-c2ccccc2)nc2ccccc12 [PRT-051]	119 % of Control	93 % of Control	–
O=C(Cc1n[nH]c(=O)c2ccccc12)Nn1cnc2ccccc21 [TYLT-001]	103 % of Control	117 % of Control	–
O=C(COC(=O)c1cccs1)c1ccc2[nH]c(=O)[nH]c2c1 [TYLT-003]	94 % of Control	97 % of Control	–
